In ChEMBL document CHEMBL1136464, “Array synthesis of novel lipodepsipeptide” (Bioorg Med Chem Lett, 2003):
Values after ≈ are worked out from the molar mass of the structure shown.

Key:
Format in all cases: functional
[1] = test system: Enterococcus faecium; experiment: Antibacterial activity against Enterococcus faecium ATCC 49452 at 0 % serum
[2] = test system: Enterococcus faecium; experiment: Antibacterial activity against Enterococcus faecium ATCC 49452 at 10 % serum; details: ATCC 49452, Serum
[3] = test system: Enterococcus faecalis; experiment: Antibacterial activity against Enterococcus faecalis ATCC 6569 at 0 % serum
[4] = test system: Enterococcus faecalis; experiment: Antibacterial activity against Enterococcus faecalis ATCC 6569 at 10 % serum; details: ATCC 6569, Serum
[5] = test system: Staphylococcus aureus; experiment: Antibacterial activity against methicillin-resistant staphylococcus aureus ATCC 43300 at 10 % serum
[6] = test system: Staphylococcus aureus; experiment: Antibacterial activity against methicillin susceptible staphylococcus aureus ATCC 29213 at 0 % serum
[7] = test system: Staphylococcus aureus; experiment: Antibacterial activity against methicillin susceptible staphylococcus aureus ATCC 29213 at 10 % serum
[8] = test system: Staphylococcus aureus; experiment: Antibacterial activity against methicillin-resistant staphylococcus aureus ATCC 43300 at 0 % serum

Compound | MIC [1] | MIC [2] | MIC [3] | MIC [4] | MIC [5] | MIC [6] | MIC [7] | MIC [8]
CCCCCCCCCC(=O)N[C@@H](Cc1c[nH]c2ccccc12)C(=O)N[C@H](CC(N)=O)C(=O)N[C@@H](CCO)C(=O)N[C@@H]1C(=O)NCC(=O)N[C@@H](CCCNCc2cc3ccccc3o2)C(=O)N[C@@H](CC(=O)O)C(=O)N[C@H](C)C(=O)N[C@@H](CC(=O)O)C(=O)NCC(=O)N[C@H](CO)C(=O)N[C@@H]([C@H](C)CC(=O)O)C(=O)N[C@@H](CC(=O)c2ccccc2N)C(=O)O[C@@H]1C | 3.13 µg/mL (≈ 1.8 µM) | 12.5 µg/mL (≈ 7.2 µM) | 3.13 µg/mL (≈ 1.8 µM) | 6.25 µg/mL (≈ 3.6 µM) | 0.78 µg/mL (≈ 0.449 µM) | 0.78 µg/mL (≈ 0.449 µM) | 1.56 µg/mL (≈ 0.898 µM) | 0.78 µg/mL (≈ 0.449 µM)
CCCCCCCCCC(=O)N[C@@H](Cc1c[nH]c2ccccc12)C(=O)N[C@H](CC(N)=O)C(=O)N[C@@H](CCO)C(=O)N[C@@H]1C(=O)NCC(=O)N[C@@H](CCCNCc2ccc(C(=O)N3CCN(c4ccc(F)cc4)CC3)cc2)C(=O)N[C@@H](CC(=O)O)C(=O)N[C@H](C)C(=O)N[C@@H](CC(=O)O)C(=O)NCC(=O)N[C@H](CO)C(=O)N[C@@H]([C@H](C)CC(=O)O)C(=O)N[C@@H](CC(=O)c2ccccc2N)C(=O)O[C@@H]1C | 6.25 µg/mL (≈ 3.28 µM) | 6.25 µg/mL (≈ 3.28 µM) | 3.13 µg/mL (≈ 1.64 µM) | 6.25 µg/mL (≈ 3.28 µM) | 0.78 µg/mL (≈ 0.41 µM) | 0.78 µg/mL (≈ 0.41 µM) | 1.56 µg/mL (≈ 0.82 µM) | 0.78 µg/mL (≈ 0.41 µM)
CCCCCCCCCC(=O)N[C@@H](Cc1c[nH]c2ccccc12)C(=O)N[C@H](CC(N)=O)C(=O)N[C@@H](CCO)C(=O)N[C@@H]1C(=O)NCC(=O)N[C@@H](CCCNCc2ccc(S(=O)(=O)N3CCN(c4ccccc4)CC3)cc2)C(=O)N[C@@H](CC(=O)O)C(=O)N[C@H](C)C(=O)N[C@@H](CC(=O)O)C(=O)NCC(=O)N[C@H](CO)C(=O)N[C@@H]([C@H](C)CC(=O)O)C(=O)N[C@@H](CC(=O)c2ccccc2N)C(=O)O[C@@H]1C | 1.56 µg/mL (≈ 0.812 µM) | 12.5 µg/mL (≈ 6.51 µM) | 0.78 µg/mL (≈ 0.406 µM) | 6.25 µg/mL (≈ 3.25 µM) | 0.78 µg/mL (≈ 0.406 µM) | 0.39 µg/mL (≈ 0.203 µM) | 3.13 µg/mL (≈ 1.63 µM) | 0.78 µg/mL (≈ 0.406 µM)
CCCCCCCCCC(=O)N[C@@H](Cc1c[nH]c2ccccc12)C(=O)N[C@H](CC(N)=O)C(=O)N[C@@H](CCO)C(=O)N[C@@H]1C(=O)NCC(=O)N[C@@H](CCCNCc2ccc(/C=C/C(=O)N3CCN(c4ccc(Cl)c(Cl)c4)CC3)cc2)C(=O)N[C@@H](CC(=O)O)C(=O)N[C@H](C)C(=O)N[C@@H](CC(=O)O)C(=O)NCC(=O)N[C@H](CO)C(=O)N[C@@H]([C@H](C)CC(=O)O)C(=O)N[C@@H](CC(=O)c2ccccc2N)C(=O)O[C@@H]1C | 1.56 µg/mL (≈ 0.788 µM) | 50 µg/mL (≈ 25.3 µM) | 1.56 µg/mL (≈ 0.788 µM) | 50 µg/mL (≈ 25.3 µM) | 12.5 µg/mL (≈ 6.31 µM) | 0.78 µg/mL (≈ 0.394 µM) | 12.5 µg/mL (≈ 6.31 µM) | 0.78 µg/mL (≈ 0.394 µM)
CCCCCCCCCC(=O)N[C@@H](Cc1c[nH]c2ccccc12)C(=O)N[C@H](CC(N)=O)C(=O)N[C@@H](CCO)C(=O)N[C@@H]1C(=O)NCC(=O)N[C@@H](CCCNCc2ccc(F)cc2F)C(=O)N[C@@H](CC(=O)O)C(=O)N[C@H](C)C(=O)N[C@@H](CC(=O)O)C(=O)NCC(=O)N[C@H](CO)C(=O)N[C@@H]([C@H](C)CC(=O)O)C(=O)N[C@@H](CC(=O)c2ccccc2N)C(=O)O[C@@H]1C | 6.25 µg/mL (≈ 3.61 µM) | 25 µg/mL (≈ 14.4 µM) | 6.25 µg/mL (≈ 3.61 µM) | 12.5 µg/mL (≈ 7.21 µM) | 0.78 µg/mL (≈ 0.45 µM) | 1.56 µg/mL (≈ 0.9 µM) | 3.13 µg/mL (≈ 1.81 µM) | 0.78 µg/mL (≈ 0.45 µM)
CCCCCCCCCC(=O)N[C@@H](Cc1c[nH]c2ccccc12)C(=O)N[C@H](CC(N)=O)C(=O)N[C@@H](CCO)C(=O)N[C@@H]1C(=O)NCC(=O)N[C@@H](CCCNCc2nccs2)C(=O)N[C@@H](CC(=O)O)C(=O)N[C@H](C)C(=O)N[C@@H](CC(=O)O)C(=O)NCC(=O)N[C@H](CO)C(=O)N[C@@H]([C@H](C)CC(=O)O)C(=O)N[C@@H](CC(=O)c2ccccc2N)C(=O)O[C@@H]1C | 6.24 µg/mL (≈ 3.66 µM) | 6.25 µg/mL (≈ 3.67 µM) | 6.25 µg/mL (≈ 3.67 µM) | 12.5 µg/mL (≈ 7.34 µM) | 0.78 µg/mL (≈ 0.458 µM) | 0.78 µg/mL (≈ 0.458 µM) | 1.56 µg/mL (≈ 0.916 µM) | 0.78 µg/mL (≈ 0.458 µM)
